{"source": "paper PMC6035379", "about": "(Journal of Ginseng Research, 2017)", "key": {"CYP1A1": {"system": "CYP1A1", "conditions": "HepG2 cells; cited from earlier work"}, "[1]": {"type": "in vivo", "conditions": "rats; fexofenadine 10 mg/kg oral; control group without KRG"}, "P-gp": {"system": "P-gp", "conditions": "cited from earlier work"}, "drug-resistant KBV cells": {"system": "drug-resistant KBV cells", "conditions": "cited from earlier work"}, "CYP2C9": {"system": "CYP2C9", "conditions": "cited from earlier work"}, "CYP2D6": {"system": "CYP2D6", "conditions": "cited from earlier work"}, "CYP3A4": {"system": "CYP3A4", "conditions": "cited from earlier work"}, "CYP2C19": {"system": "CYP2C19", "conditions": "cited from earlier work"}}, "note": "Structures can show the parent of a compound that is named as a salt.", "data": [{"molecule": "CC(C)=CCC[C@](C)(O[C@@H]1O[C@H](CO)[C@@H](O)[C@H](O)[C@H]1O)[C@H]1CC[C@]2(C)[C@@H]1[C@H](O)C[C@@H]1[C@@]3(C)CC[C@H](O)C(C)(C)[C@@H]3[C@@H](O[C@@H]3O[C@H](CO)[C@@H](O)[C@H](O)[C@H]3O)C[C@]12C", "note": "[ginsenoside Rg1]", "values": [{"measurement": "mRNA level of CYP1A1", "setting": "CYP1A1", "value": "significantly increased"}]}, {"molecule": "CC(C)=CCC[C@](C)(O[C@@H]1O[C@H](CO[C@@H]2OC[C@H](O)[C@H](O)[C@H]2O)[C@@H](O)[C@H](O)[C@H]1O)[C@H]1CC[C@]2(C)[C@@H]1[C@H](O)C[C@@H]1[C@@]3(C)CC[C@H](O[C@@H]4O[C@H](CO)[C@@H](O)[C@H](O)[C@H]4O[C@@H]4O[C@H](CO)[C@@H](O)[C@H](O)[C@H]4O)C(C)(C)[C@@H]3CC[C@]12C", "note": "[ginsenoside Rb2]", "values": [{"measurement": "mRNA level of CYP1A1", "setting": "CYP1A1", "value": "significantly increased"}]}, {"molecule": "CC(C)(C(=O)O)c1ccc(C(O)CCCN2CCC(C(O)(c3ccccc3)c3ccccc3)CC2)cc1", "note": "(stereo not drawn) [fexofenadine, Fexofenadine hydrochloride]", "values": [{"measurement": "mean maximum concentration of fexofenadine", "setting": "[1]", "value": 32, "unit": "ng/mL"}]}, {"molecule": "Cc1ncc2n1-c1ccc(Cl)cc1C(c1ccccc1F)=NC2", "note": "[midazolam]", "values": [{"measurement": "transport by P-gp", "setting": "P-gp", "value": "not transported"}]}, {"molecule": "CC(C)=CCC[C@](C)(O)[C@H]1CC[C@]2(C)[C@@H]1[C@H](O)C[C@@H]1[C@@]3(C)CC[C@H](O[C@@H]4O[C@H](CO)[C@@H](O)[C@H](O)[C@H]4O[C@@H]4O[C@H](CO)[C@@H](O)[C@H](O)[C@H]4O)C(C)(C)[C@@H]3CC[C@]12C", "note": "[ginsenoside Rg3]", "values": [{"measurement": "(3H) vinblastine efflux", "setting": "drug-resistant KBV cells", "value": "inhibited"}]}, {"molecule": "CC(C)=CCC[C@](C)(O[C@@H]1O[C@H](CO)[C@@H](O)[C@H](O)[C@H]1O)[C@H]1CC[C@]2(C)[C@@H]1[C@H](O)C[C@@H]1[C@@]3(C)CC[C@H](O[C@@H]4O[C@H](CO)[C@@H](O)[C@H](O)[C@H]4O[C@@H]4O[C@H](CO)[C@@H](O)[C@H](O)[C@H]4O)C(C)(C)[C@@H]3CC[C@]12C", "note": "[ginsenoside Rd]", "values": [{"measurement": "inhibition of CYP2C9", "setting": "CYP2C9", "value": "weak inhibition"}, {"measurement": "inhibition of CYP2D6", "setting": "CYP2D6", "value": "weak inhibition"}, {"measurement": "inhibition of CYP3A4", "setting": "CYP3A4", "value": "weak inhibition"}, {"measurement": "inhibition of CYP2C19", "setting": "CYP2C19", "value": "weak inhibition"}]}]}
